This passage reports relative viability results from the supplement of paper PMC10307832.

Experiment in all cases: relative viability (nuclei count vs DMSO), 5 days (fraction); higher = more cells survive
Compound in one assay: CCOC1=CC=CC=C1N=NC2=C(NN(C2=O)C3=NC(=CS3)C4=CC=CC=C4)C [BAM7]
Summed up: (§1)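 MetaXpress counted nuclei in 4× images of lung cancer cell lines that had been fixed, permeabilised and Hoechst-stained in one step. Before that, cells in 1536-well plates were kept overnight at 37 °C, pinned with five √10-spaced library-drug doses on vehicle-anchored plates, and cultured 5 days without medium change. Viability takes treated-well nuclei over vehicle-well nuclei and uses the median across plates. Plates were accepted only at control CV below 25% and at least one doubling.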

Compound in assay [1]: CCn1c(-c2nonc2N)nc2c(C#CC(C)(C)O)ncc(OC[C@H]3CCCNC3)c21
The procedure, abridged: as §1

Compound in the assay “BAM7 + Alpelisib”: CCOC1=CC=CC=C1N=NC2=C(NN(C2=O)C3=NC(=CS3)C4=CC=CC=C4)C [BAM7] + Cc1nc(NC(=O)N2CCC[C@H]2C(N)=O)sc1-c1ccnc(C(C)(C)C(F)(F)F)c1 [Alpelisib] (partner 2 µM)
Summed up:
(§2)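 Five library-drug doses in √10 steps were combined with a fixed anchor-drug dose, or a single drug was given alone, by pin tool to lung cancer cell lines in 1536-well plates the day after seeding. Nuclei were stained and counted after 5 days. Relative viability is the nuclei count in treated wells over that in vehicle wells, taken as the median of duplicate plates.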

Compound in assay [2]: CCn1c(-c2nonc2N)nc2c(C#CC(C)(C)O)ncc(OC[C@H]3CCCNC3)c21 + Nc1nc2[nH]cc(CCc3ccc(C(=O)N[C@@H](CCC(=O)O)C(=O)O)cc3)c2c(=O)[nH]1 [Pemetrexed] (partner 0.2 µM)
The procedure, abridged: as §2

Turning to HCC-366, the relative viability with BAM7 (0.5 µM) worked out at 1.04; in the assay with BAM7 (5 µM), 1.04; in the assay with BAM7 (15.81 µM) it was 1.03; with BAM7 (50 µM), 1.02; in assay [1] (0.01 µM), 0.993; in assay [1] (0.03162 µM), 1.05. The relative viability in assay [1] (0.1 µM) was determined as 0.805; in assay [1] (0.3162 µM), 0.998; in assay [1] (1 µM), 0.99; in the assay with BAM7 + Alpelisib (first compound 0.5 µM), 0.403; with BAM7 + Alpelisib (first compound 5 µM), 0.318; with BAM7 + Alpelisib (first compound 15.81 µM) it was 0.324. The relative viability was 0.322 with BAM7 + Alpelisib (first compound 50 µM); 0.183 in assay [2] (first compound 0.01 µM); 0.179 in assay [2] (first compound 0.03162 µM); 0.195 in assay [2] (first compound 0.1 µM); 0.172 in assay [2] (first compound 0.3162 µM); 0.182 in assay [2] (first compound 1 µM).
Consider HCC-827, for which the relative viability was determined as 1.04 with BAM7 (0.5 µM); 1.05 with BAM7 (5 µM); 1.06 in the assay with BAM7 (15.81 µM); 1.03 with BAM7 (50 µM); 1.06 in assay [1] (0.01 µM); 1.03 in assay [1] (0.03162 µM). Further, the relative viability is 1 in assay [1] (0.1 µM); 0.986 in assay [1] (0.3162 µM); 0.99 in assay [1] (1 µM); 1.03 with BAM7 + Alpelisib (first compound 0.5 µM); 0.97 in the assay with BAM7 + Alpelisib (first compound 5 µM); 1.01 with BAM7 + Alpelisib (first compound 15.81 µM). Besides, the relative viability amounted to 1 with BAM7 + Alpelisib (first compound 50 µM); 0.287 in assay [2] (first compound 0.01 µM); 0.315 in assay [2] (first compound 0.03162 µM); 0.241 in assay [2] (first compound 0.1 µM); 0.249 in assay [2] (first compound 0.3162 µM); 0.267 in assay [2] (first compound 1 µM).
Take HOP-62: the relative viability came to 1.03 in the assay with BAM7 (0.5 µM); 1.09 with BAM7 (5 µM); 1.07 in the assay with BAM7 (15.81 µM); 1.07 with BAM7 (50 µM); 0.989 in assay [1] (0.01 µM); 0.945 in assay [1] (0.03162 µM). For the same cell line, the relative viability was found to be 1.01 in assay [1] (0.1 µM); 0.976 in assay [1] (0.3162 µM); 1.01 in assay [1] (1 µM); 0.921 with BAM7 + Alpelisib (first compound 0.5 µM); 0.826 in the assay with BAM7 + Alpelisib (first compound 5 µM); 0.901 with BAM7 + Alpelisib (first compound 15.81 µM). Further, the relative viability with BAM7 + Alpelisib (first compound 50 µM) stood at 0.797; in assay [2] (first compound 0.01 µM), 0.289; in assay [2] (first compound 0.03162 µM) it was 0.407; in assay [2] (first compound 0.1 µM), 0.289; in assay [2] (first compound 0.3162 µM), 0.288; in assay [2] (first compound 1 µM), 0.286.
With LC-2-ad, the relative viability in the assay with BAM7 (0.5 µM) was 0.961; with BAM7 (5 µM), 1; in the assay with BAM7 (15.81 µM) it was 0.939; with BAM7 (50 µM), 1.01; in assay [1] (0.01 µM) it was 0.903; in assay [1] (0.03162 µM), 0.951. Besides, the relative viability in assay [1] (0.1 µM) turned out to be 0.964; in assay [1] (0.3162 µM), 0.949; in assay [1] (1 µM), 0.989; with BAM7 + Alpelisib (first compound 0.5 µM) it was 0.998; in the assay with BAM7 + Alpelisib (first compound 5 µM) it was 0.893; with BAM7 + Alpelisib (first compound 15.81 µM) it was 0.746. Also, the relative viability in the assay with BAM7 + Alpelisib (first compound 50 µM) came out at 0.855; in assay [2] (first compound 0.01 µM) it was 0.267; in assay [2] (first compound 0.03162 µM), 0.283; in assay [2] (first compound 0.1 µM) it was 0.261; in assay [2] (first compound 0.3162 µM), 0.262; in assay [2] (first compound 1 µM), 0.272.
Regarding LCLC-97TM1, the relative viability in the assay with BAM7 (0.5 µM) turned out to be 1.12; with BAM7 (5 µM), 1.12; in the assay with BAM7 (15.81 µM), 1.09; with BAM7 (50 µM), 1.06; in assay [1] (0.01 µM), 0.989; in assay [1] (0.03162 µM), 1.01. Moreover, the relative viability is 1.16 in assay [1] (0.1 µM); 0.854 in assay [1] (0.3162 µM); 0.944 in assay [1] (1 µM); 0.303 with BAM7 + Alpelisib (first compound 0.5 µM); 0.235 in the assay with BAM7 + Alpelisib (first compound 5 µM); 0.235 in the assay with BAM7 + Alpelisib (first compound 15.81 µM). Besides, the relative viability with BAM7 + Alpelisib (first compound 50 µM) worked out at 0.316; in assay [2] (first compound 0.01 µM) it was 0.169; in assay [2] (first compound 0.03162 µM), 0.179; in assay [2] (first compound 0.1 µM), 0.141; in assay [2] (first compound 0.3162 µM), 0.147; in assay [2] (first compound 1 µM), 0.175.
Take LCLC-103H: the relative viability with BAM7 (0.5 µM) was found to be 0.966; with BAM7 (5 µM) it was 1.04; in the assay with BAM7 (15.81 µM), 0.983; in the assay with BAM7 (50 µM) it was 1.04; in assay [1] (0.01 µM), 0.964; in assay [1] (0.03162 µM), 0.988. In addition, the relative viability came to 0.929 in assay [1] (0.1 µM); 0.938 in assay [1] (0.3162 µM); 1.09 in assay [1] (1 µM); 0.998 with BAM7 + Alpelisib (first compound 0.5 µM); 0.837 in the assay with BAM7 + Alpelisib (first compound 5 µM); 1.08 with BAM7 + Alpelisib (first compound 15.81 µM). Besides, the relative viability with BAM7 + Alpelisib (first compound 50 µM) worked out at 0.984; in assay [2] (first compound 0.01 µM), 0.449; in assay [2] (first compound 0.03162 µM), 0.498; in assay [2] (first compound 0.1 µM), 0.476; in assay [2] (first compound 0.3162 µM), 0.456; in assay [2] (first compound 1 µM) it was 0.439.
On to LK-2, for which the relative viability came to 1.03 in the assay with BAM7 (0.5 µM); 1.13 with BAM7 (5 µM); 1.04 with BAM7 (15.81 µM); 1.1 in the assay with BAM7 (50 µM); 0.889 in assay [1] (0.01 µM); 1.06 in assay [1] (0.03162 µM). In addition, the relative viability turned out to be 0.815 in assay [1] (0.1 µM); 0.913 in assay [1] (0.3162 µM); 0.872 in assay [1] (1 µM); 1.14 with BAM7 + Alpelisib (first compound 0.5 µM); 1.78 with BAM7 + Alpelisib (first compound 5 µM); 1.16 with BAM7 + Alpelisib (first compound 15.81 µM). In addition, the relative viability with BAM7 + Alpelisib (first compound 50 µM) came out at 0.874; in assay [2] (first compound 0.01 µM) it was 0.277; in assay [2] (first compound 0.03162 µM), 0.333; in assay [2] (first compound 0.1 µM) it was 0.269; in assay [2] (first compound 0.3162 µM) it was 0.204; in assay [2] (first compound 1 µM) it was 0.234.
Take LOU-NH91: the relative viability was found to be 0.974 with BAM7 (0.5 µM); 1.06 with BAM7 (5 µM); 0.939 with BAM7 (15.81 µM); 0.973 with BAM7 (50 µM); 1 in assay [1] (0.01 µM); 0.924 in assay [1] (0.03162 µM). In addition, the relative viability amounted to 0.989 in assay [1] (0.1 µM); 0.9 in assay [1] (0.3162 µM); 0.888 in assay [1] (1 µM); 0.753 with BAM7 + Alpelisib (first compound 0.5 µM); 0.728 in the assay with BAM7 + Alpelisib (first compound 5 µM); 0.629 with BAM7 + Alpelisib (first compound 15.81 µM). Moreover, the relative viability was determined as 0.684 with BAM7 + Alpelisib (first compound 50 µM); 0.403 in assay [2] (first compound 0.01 µM); 0.366 in assay [2] (first compound 0.03162 µM); 0.419 in assay [2] (first compound 0.1 µM); 0.4 in assay [2] (first compound 0.3162 µM); 0.399 in assay [2] (first compound 1 µM).
